Results published in publication PMC9774946, “Trans-(±)-Kusunokinin Binding to AKR1B1 Inhibits Oxidative Stress and Proteins Involved in Migration in Aggressive Breast Cancer” (Antioxidants, 2022).

Assays:
[1] = target: T1, AKR1B1 (aldose reductase) (Homo sapiens, UniProt P15121); test: aldose reductase inhibitor screening kit (NADPH consumption at […] nm); supported by CETSA in Hs578T and SKOV3 cells; format: biochemical
[2] = target: T1, AKR1B1 (aldose reductase); test: aldose reductase inhibitor screening kit, NADPH consumption at […] nm; format: biochemical

| IC50 [1] [µM] | IC50 [2] [µM] | Structure (SMILES) |
| --- | --- | --- |
| 9.72 ± 0.18 |  | COc1ccc(C[C@H]2COC(=O)[C@@H]2Cc2ccc3c(c2)OCO3)cc1OC (racemic) [(±)KU, trans-(±)-kusunokinin] |
|  | 13.7 | COc1ccc(C[C@H]2COC(=O)[C@@H]2Cc2ccc(O[C@@H]3O[C@H](CO)[C@@H](O)[C@H](O)[C@H]3O)c(OC)c2)cc1OC [(−)AR, trans-(−)-arctiin] |
